From patent publication US20100062492A1, “Method For Preparing Icariside II, Cosmetic Composition Containing The Same and the Use Thereof For Skin Whitening” (Amorepacific Corporation, priority 2006, published 2010)

Legend:
[1] = tested on: alpha-glucosidase (Sigma); test: Test of alpha-glucosidase inhibitory effect; format: biochemical; conditions: 0.01 ml of 10 mg/ml sample; 50 U/ml alpha-glucosidase; 5 mM p-nitrophenyl-α-D-glucopyranoside, 37° C., 5 minutes; absorbance at 405 nm; untreated group = 100.0
Description: In this regard, the deoxynojirimycin was used as a positive control group. Each of the samples was measured for absorbance at 405 nm to determine initial absorbance, and 0.05 ml of 5 mM p-nitrophenyl-α-D-glucopyranoside as a substrate was added thereto and subjected to an enzymatic reaction at 37° C. for 5 minutes. Then, each sample was measured for absorbance at 405 nm, and the enzyme activity inhibition thereof was calculated according to Math Figure 1. Alpha-glucosidase activity inhibition (%)=100−(absorbance of each test sample/absorbance of control group×100) [Math Figure 1]

[2] = tested on: tyrosinase in human melanoma cell HM3KO cells; test: Effect on glycosylation of human melanoma cell tyrosinase (endoglycosidase H digestion, electrophoresis, immunodetection); format: cell-based; conditions: HM3KO cells cultured to confluency with 0.05% sample; about 72 kD = normally glycosylated, about 60 kD = glycosylation inhibited
Description: In order to examine the effect of icariside II on the glycosylation of tyrosinase in human melanoma cells, the following test was carried out. First, human melanoma cell HM3KO cells (Y. Funasaka, Department of dermatology, Kobe university school of medicine, 5-1 Kusunoki-cho 7-chrome, Chuo-ku, Kobe 650, Japan) were cultured in a minimum essential medium (MEM), containing 10% bovine fetal serum, under conditions of 37° C. and 5% CO2. The cultured cells were placed in 75 cm^2 flasks at a cell density of 3×10^5 cells and left to stand overnight, such that the cells adhered to the flask wall. From the next day, the medium was replaced with a fresh medium, containing each of icariin icariside II of Example 1 and deoxynojirimycin in an amount of 0.05%. Herein, the deoxynojirimycin was used as a positive control group. The medium was replaced with a fresh medium containing each of the samples at a 1-2-day interval, and the cells were cultured to confluency in the flasks. When the cells reached confluency, the cells were collected, added to lysis buffer (2% CHAPS in 50 mM Hepes and 200 mM NaCl, pH 7.5, protease inhibitors) and ultrasonically disrupted. The disrupted cell solution was centrifuged at 4° C. and 12000 rpm for 10 minutes, unbroken cells and melanin were separated and removed, and only the supernatant was collected. Endoglycosidase H (125 units) was added to the supernatant (protein amount: […]), and the supernatant was subjected to an enzymatic reaction at 37° C. for 1 hour. Then, proteins in the supernatant were separated according to size by electrophoresis. Among the proteins separated by electrophoresis, tyrosinase could be observed by an immune reaction with an antibody. […]

[3] = tested on: human skin; test: Test of whitening effect on human skin after UVB-induced blackness; format: in vivo; conditions: 1% solution in 1,3-butyleneglycol:ethanol=7:3 applied to UVB-irradiated upper arm of 12 healthy men, 10 weeks; ΔL* higher than about 1.5 = whitening effect
Description: First, a perforated opaque tape having a diameter of 1.5 cm was attached to the upper arm of each of 12 healthy men. Then, UV rays (UVB) were irradiated to each of the subjects at a dose 1.5-2 times higher than the minimal erythema dose of each subject, thus inducing skin's blackness.
After the UV irradiation, each of a 1% solution of icariside (1,3-butyleneglycol:ethanol=7:3, as a vehicle), prepared in Example 1, a 1% solution of hydroquinone, a 1% solution of vehicle (negative control group), was applied to the skin of each subject. […] The skin color was measured with a colorimeter (Minolta, Japan) at a 1-week interval.
ΔL*=L* value at time point of completion of application−L* value at time point of start of application [Math Figure 2]

SMILES | Activity inhibition (%) [1] [%] | size of tyrosinase after endoglycosidase H treatment (FIG. 1) [2] | Lightless (ΔL*) of skin color [3]
OC[C@H]1NC[C@H](O)[C@@H](O)[C@@H]1O [Deoxynojirimycin, deoxynojirimycin, reference compound] | 41.1 | about 60 kD | –
COc1ccc(-c2oc3c(CC=C(C)C)c(O)cc(O)c3c(=O)c2O[C@@H]2O[C@H](C)[C@@H](O)[C@H](O)[C@@H]2O)cc1 [Example 1, icariside II] | 38.2 | about 60 kD | 1.97 ± 0.25
COc1ccc(-c2oc3c(CC=C(C)C)c(O)cc(O)c3c(=O)c2O[C@@H]2O[C@H](C)[C@@H](O)[C@H](O)[C@@H]2O)cc1 [Example 2, icariside II] | 38.8 | – | –
COc1ccc(-c2oc3c(CC=C(C)C)c(O)cc(O)c3c(=O)c2O[C@@H]2O[C@H](C)[C@@H](O)[C@H](O)[C@@H]2O)cc1 [Example 3, icariside II] | 37.5 | – | –
COc1ccc(-c2oc3c(CC=C(C)C)c(O)cc(O)c3c(=O)c2O[C@@H]2O[C@H](C)[C@@H](O)[C@H](O)[C@@H]2O)cc1 [Example 4, icariside II] | 37.9 | – | –
COc1ccc(-c2oc3c(CC=C(C)C)c(O)cc(O)c3c(=O)c2O[C@@H]2O[C@H](C)[C@@H](O)[C@H](O)[C@@H]2O)cc1 [Example 5, icariside II] | 37.8 | – | –
Oc1ccc(O)cc1 [Hydroquinone, hydroquinone, reference compound] | – | – | 1.90 ± 0.11
COc1ccc(-c2oc3c(CC=C(C)C)c(O[C@@H]4O[C@H](CO)[C@@H](O)[C@H](O)[C@H]4O)cc(O)c3c(=O)c2O[C@@H]2O[C@@H](C)[C@H](O)[C@@H](O)[C@H]2O)cc1 [Icariin, icariin, reference compound] | 98.8 | about 72 kD | –
